The text below walks through data of patent US20260256751A1, “COMBINATION OF BETA-2-ADRENERGIC RECEPTOR AGONISTS AND GLP-1 RECEPTOR AGONISTS FOR USE IN TREATING HYPERGLYCAEMIA” (ATROGI AB, priority 2023, published 2026).

Some results are limits rather than exact numbers.

Assay [1] relates to differentiated L6-myotubes. In words: Glucose uptake screen (Biological example 1 of WO 2019/053427). The assay is classed as cell-based. To be noted: compound at 10 μM, activity relative to isoproterenol at 10 μM, read-out: Biological example 1 of WO 2019/053427 (GU). Summed up:
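Uptake was read out as ^3H-2-deoxyglucose (50 nM, 10 min) radioactivity in NaOH lysates. Beforehand, overnight-starved, differentiated L6 myotubes received compound at 1×10^−5 M with ICI-118551 present for 1 h 40 min, followed by fresh agonist for a further 20 min in glucose-free medium.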

For assay [2], the system named is differentiated L6-myotubes. In words: cAMP production relative to isoprenaline (Biological example 2 of WO 2019/053427). To be noted: 0.25 h, compound at 10 μM, activity relative to isoproterenol at 10 μM. The assay is classed as cell-based. In short, it runs like this:
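Values are cAMP levels relative to isoprenaline at equal concentration (final 1×10^−5 M for both). Stimulation lasted 15 min in differentiated L6 myotubes, using HBSS buffer (pH 7.4) containing 1 mM IBMX, 5 mM HEPES and 1% BSA.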

On to `CO[C@H]1CC[C@H](C[C@H]2CC[C@H]([C@@H](O)c3ccccc3F)N2)CC1` [Compound 338, (S)-[(2R,5R)-5-{[(1r,4R)-4-methoxycyclohexyl]methyl}-2-pyrrolidinyl](o-fluorophenyl)methanol], for which the Emax at 10 µM in assay [1] is 50 to 75%; in assay [2], less than 25%.

Turning to `CO[C@H]1CC[C@H](C[C@H]2CC[C@H]([C@H](O)c3ccccc3F)N2)CC1` [Compound 339, (R)-[(2R,5R)-5-{[(1r,4R)-4-methoxycyclohexyl]methyl}-2-pyrrolidinyl](o-fluorophenyl)methanol], the Emax at 10 µM in assay [1] was greater than 75%; in assay [2], 25 to 50%.

`CO[C@H]1CC[C@H](C[C@H]2CC[C@H]([C@@H](O)c3cncc(F)c3)N2)CC1` [Compound 340, (S)-[(2R,5R)-5-{[(1r,4R)-4-methoxycyclohexyl]methyl}-2-pyrrolidinyl](5-fluoro-3-pyridyl)methanol]: the Emax at 10 µM in assay [1] was 25 to 50%; in assay [2], less than 25%.

On to `CO[C@H]1CC[C@H](C[C@H]2CC[C@H]([C@H](O)c3cncc(F)c3)N2)CC1` [Compound 341, (R)-[(2R,5R)-5-{[(1r,4R)-4-methoxycyclohexyl]methyl}-2-pyrrolidinyl](5-fluoro-3-pyridyl)methanol], for which the results for the Emax at 10 µM in assay [1] and in assay [2] were greater than 75% and less than 25%, respectively.

Consider `COC(=O)[C@H]1CC[C@H](CCC(C)(C)NC[C@H](O)c2cncc(F)c2)CC1` [Compound 342, methyl (1R,4r)-4-{3-[(R)-2-(5-fluoro-3-pyridyl)-2-hydroxyethylamino]-3-methylbutyl}cyclohexanecarboxylate], for which the values for the Emax at 10 µM in assay [1] and in assay [2] were greater than 75% and less than 25%, respectively.

For the compound `CC(C)(CC[C@H]1CC[C@H](C(=O)O)CC1)NC[C@H](O)c1cncc(F)c1` [Compound 343, (1R,4r)-4-{3-[(R)-2-(5-fluoro-3-pyridyl)-2-hydroxyethylamino]-3-methylbutyl}cyclohexanecarboxylic acid], the Emax at 10 µM in assay [1] was 25 to 50%; in assay [2], less than 25%.

With `CC(C)(NC[C@H](O)c1cncc(F)c1)[C@H]1CC[C@H](N)CC1` [Compound 344, (R)-1-(5-fluoro-3-pyridyl)-2-{1-methyl-1-[(1r,4R)-4-aminocyclohexyl]ethylamino}-1-ethanol], the Emax at 10 µM in assay [1] and in assay [2] was less than 25% in each case.

In the case of `CC(C)(NC[C@H](O)c1cncc(F)c1)[C@H]1CC[C@H](NS(C)(=O)=O)CC1` [Compound 345, (R)-1-(5-fluoro-3-pyridyl)-2-{1-methyl-1-[(1r,4R)-4-(mesylamino)cyclohexyl]ethylamino}-1-ethanol], the Emax at 10 µM is 25 to 50% in assay [1] and less than 25% in assay [2].

Consider `CC(=O)N[C@H]1CC[C@H](C(C)(C)NC[C@H](O)c2cncc(F)c2)CC1` [Compound 346, N-[(1R,4r)-4-{1-[(R)-2-(5-fluoro-3-pyridyl)-2-hydroxyethylamino]-1-methylethyl}cyclohexyl]acetamide], for which the Emax at 10 µM in assay [1] is greater than 75%; in assay [2], less than 25%.

In the case of `CC(C)(CC[C@H]1CC[C@@H](C(=O)O)CC1)NC[C@H](O)c1cncc(F)c1` [Compound 347, (1S,4s)-4-{3-[(R)-2-(5-fluoro-3-pyridyl)-2-hydroxyethylamino]-3-methylbutyl}cyclohexanecarboxylic acid], the results for the Emax at 10 µM in assay [1] and in assay [2] were greater than 75% and less than 25%, respectively.

As to `CC(C)(CC[C@H]1CC[C@H](C(=O)O)CC1)NC[C@H](O)c1cccc(F)c1` [Compound 348, (1R,4r)-4-{3-[(R)-2-(m-fluorophenyl)-2-hydroxyethylamino]-3-methylbutyl}cyclohexanecarboxylic acid], the Emax at 10 µM in assay [1] and in assay [2] was less than 25% throughout.

Take `COC(=O)[C@H]1CC[C@@H](CCC(C)(C)NC[C@H](O)c2cncc(F)c2)CC1` [Compound 349, methyl (1S,4s)-4-{3-[(R)-2-(5-fluoro-3-pyridyl)-2-hydroxyethylamino]-3-methylbutyl}cyclohexanecarboxylate]: the figures for the Emax at 10 µM in assay [1] and in assay [2] were greater than 75% and 25 to 50%, respectively.

In the case of `COC(=O)[C@H]1CC[C@H](CCC(C)(C)NC[C@H](O)c2cccc(F)c2)CC1` [Compound 350, methyl (1R,4r)-4-{3-[(R)-2-(m-fluorophenyl)-2-hydroxyethylamino]-3-methylbutyl}cyclohexanecarobxylate], the Emax at 10 µM is greater than 75% in assay [1] and less than 25% in assay [2].

Turning to `COC(=O)[C@H]1CC[C@@H](CCC(C)(C)NC[C@H](O)c2cccc(F)c2)CC1` [Compound 351, methyl (1S,4s)-4-{3-[(R)-2-(m-fluorophenyl)-2-hydroxyethylamino]-3-methylbutyl}cyclohexanecarboxylate], the Emax at 10 µM was greater than 75% in assay [1] and 25 to 50% in assay [2].

With `CC(C)(CC[C@H]1CC[C@@H](C(=O)O)CC1)NC[C@H](O)c1cccc(F)c1` [Compound 352, (1S,4s)-4-{3-[(R)-2-(m-fluorophenyl)-2-hydroxyethylamino]-3-methylbutyl}cyclohexanecarboxylc acid], the figures for the Emax at 10 µM in assay [1] and in assay [2] were 25 to 50% and less than 25%, respectively.

On to `COC(=O)[C@H]1CC[C@H](CC(C)(C)NC[C@H](O)c2cccc(F)c2)CC1` [Compound 353, methyl (1R,4r)-4-{2-[(R)-2-(m-fluorophenyl)-2-hydroxyethylamino]-2-methylpropyl}cyclohexanecarboxylate], for which the Emax at 10 µM is greater than 75% in assay [1] and less than 25% in assay [2].

With `COC(=O)[C@H]1CC[C@H](CC(C)(C)NC[C@H](O)c2cncc(F)c2)CC1` [Compound 354, methyl (1R,4r)-4-{2-[(R)-2-(5-fluoro-3-pyridyl)-2-hydroxyethylamino]-2-methylpropyl}cyclohexanecarboxylate], the Emax at 10 µM in assay [1] was 50 to 75%; in assay [2] it was less than 25%.

For `CC(C)(C[C@H]1CC[C@H](C(=O)O)CC1)NC[C@H](O)c1cccc(F)c1` [Compound 355, (1R,4r)-4-{2-[(R)-2-(m-fluorophenyl)-2-hydroxyethylamino]-2-methylpropyl}cyclohexanecarboxylic acid], the Emax at 10 µM in assay [1] is 50 to 75%; in assay [2], less than 25%.

On to `CC(C)(C[C@H]1CC[C@H](C(=O)O)CC1)NC[C@H](O)c1cncc(F)c1` [Compound 356, (1R,4r)-4-{2-[(R)-2-(5-fluoro-3-pyridyl)-2-hydroxyethylamino]-2-methylpropyl}cyclohexanecarboxylic acid], for which the Emax at 10 µM in assay [1] and in assay [2] was less than 25% throughout.

`CC(=O)N[C@H]1CC[C@H](CC(C)(C)NC[C@H](O)c2cncc(F)c2)CC1` [Compound 357, N-[(1R,4r)-4-{2-[(R)-2-(5-fluoro-3-pyridyl)-2-hydroxyethylamino]-2-methylpropyl}cyclohexyl]acetamide]: the Emax at 10 µM in assay [1] is greater than 75%; in assay [2], less than 25%.

As for `CC(C)(CC[C@H]1CC[C@H](N)CC1)NC[C@H](O)c1cncc(F)c1` [Compound 358, (R)-2-{1,1-dimethyl-3-[(1r,4R)-4-aminocyclohexyl]propylamino}-1-(5-fluoro-3-pyridyl)-1-ethanol], the results for the Emax at 10 µM in assay [1] and in assay [2] were 25 to 50% and less than 25%, respectively.

Take `CC(C)(C[C@H]1CC[C@H](N)CC1)NC[C@H](O)c1cncc(F)c1` [Compound 359, (R)-2-{1,1-dimethyl-2-[(1r,4R)-4-aminocyclohexyl]ethylamino}-1-(5-fluoro-3-pyridyl)-1-ethanol]: the Emax at 10 µM in assay [1] is greater than 75%; in assay [2], less than 25%.

On to `CC(C)(C[C@H]1CC[C@H](NS(C)(=O)=O)CC1)NC[C@H](O)c1cncc(F)c1` [Compound 360, (R)-2-{1,1-dimethyl-2-[(1r,4R)-4-(mesylamino)cyclohexyl]ethylamino}-1-(5-fluoro-3-pyridyl)-1-ethanol], for which the Emax at 10 µM in assay [1] was greater than 75%; in assay [2], less than 25%.

Take `CC(=O)N[C@H]1CC[C@H](CCC(C)(C)NC[C@H](O)c2cncc(F)c2)CC1` [Compound 361, N-[(1R,4r)-4-{3-[(R)-2-(5-fluoro-3-pyridyl)-2-hydroxyethylamino]-3-methlbutyl}cyclohexyl]acetamide]: the Emax at 10 µM in assay [1] is greater than 75%; in assay [2], less than 25%.

As for `CC(C)(CC[C@H]1CC[C@H](NS(C)(=O)=O)CC1)NC[C@H](O)c1cncc(F)c1` [Compound 362, (R)-2-{1,1-dimethyl-3-[(1r,4R)-4-(mesylamino)cyclohexyl]propylamino}-1-(5-fluoro-3-pyridyl)-1-ethanol], the values for the Emax at 10 µM in assay [1] and in assay [2] were 50 to 75% and less than 25%, respectively.

Consider `CO[C@H]1CC[C@H](C[C@]2(C)CC[C@H]([C@@H](O)c3cccc(F)c3)N2)CC1` [Compound 363, (S)-[(2R,5S)-5-methyl-5-{[(1r,4S)-4-methoxycyclohexyl]methyl}-2-pyrrolidinyl](m-fluorophenyl)methanol], for which the Emax at 10 µM in assay [1] is greater than 75%; in assay [2] it was less than 25%.

Regarding `CO[C@H]1CC[C@H](C[C@]2(C)CC[C@H]([C@H](O)c3cccc(F)c3)N2)CC1` [Compound 364, (R)-[(2R,5S)-5-methyl-5-{[(1r,4S)-4-methoxycyclohexyl]methyl}-2-pyrrolidinyl](m-fluorophenyl)methanol], the Emax at 10 µM was greater than 75% in assay [1] and 50 to 75% in assay [2].

`COc1ccc(C[C@@]2(C)CC[C@H]([C@@H](O)c3cccc(F)c3)N2)cc1` [Compound 365, (S)-{(2R,5R)-5-[(p-methoxyphenyl)methyl]-5-methyl-2-pyrrolidinyl}(m-fluorophenyl)methanol]: the Emax at 10 µM in assay [1] was greater than 75%; in assay [2] it was less than 25%.
